These results are taken from ChEMBL document CHEMBL3091293, “The synthesis and biodistribution of [(11)C]metformin as a PET probe to study hepatobiliary transport mediated by the multi-drug and toxin extrusion transporter 1 (MATE1) in vivo” (Bioorg Med Chem, 2013).

What all share (format): ADME, organism-based
In data set [1] the test system is Kidney. The data set is described as follows: Biodistribution in kidney of ddY mouse at 14.6 +/- 2.1 MBq, iv measured per gram of tissue at 27.5 mins by PET image analysis. Conditions: in vivo; call rule not given here.
The test system of data set [2] is Lung. As to the kind of experiment: Biodistribution in lung of ddY mouse at 5.6 +/- 2.1 MBq, iv measured per gram of tissue at 15 mins by gamma-ray counting analysis. Particulars: in vivo, 0.25 h.
The subject of data set [3] is Mus musculus. The data set is described as follows: Biodistribution in heart wall of ddY mouse at 5.6 +/- 2.1 MBq, iv measured per gram of tissue at 15 mins by gamma-ray counting analysis. Conditions: in vivo, 0.25 h.
Data set [4] concerns Mus musculus. As to the kind of experiment: Biodistribution in stomach wall of ddY mouse at 5.6 +/- 2.1 MBq, iv measured per gram of tissue at 45 mins by gamma-ray counting analysis. Particulars: in vivo, 0.75 h.
In data set [5] the test system is Mus musculus. As to the kind of experiment: Biodistribution in remaining body parts of ddY mouse at 5.6 +/- 2.1 MBq, iv measured per gram of tissue at 60 mins by gamma-ray counting analysis. Particulars: in vivo, 1 h.
In data set [6] the test system is Liver. As to the kind of experiment: Biodistribution in liver of ddY mouse at 14.6 +/- 2.1 MBq, iv measured per gram of tissue at 14 mins by PET image analysis. Particulars: in vivo.
Data set [7] concerns Mus musculus. As to the kind of experiment: Biodistribution in urinary bladder of ddY mouse at 14.6 +/- 2.1 MBq, iv measured per gram of tissue at 14 mins by PET image analysis. Particulars: in vivo.
For data set [8], the system named is Mus musculus. The data set is described as follows: Biodistribution in urinary bladder/urine of ddY mouse at 5.6 +/- 2.1 MBq, iv measured per gram of tissue at 15 mins by gamma-ray counting analysis. Particulars: in vivo, 0.25 h.
Data set [9] deals with Kidney. The data set is described as follows: Biodistribution in kidney of ddY mouse at 14.6 +/- 2.1 MBq, iv measured per gram of tissue at 14 mins by PET image analysis. Particulars: in vivo.
Data set [10] relates to Mus musculus. As to the kind of experiment: Biodistribution in large intestine wall of ddY mouse at 5.6 +/- 2.1 MBq, iv measured per gram of tissue at 35 mins by gamma-ray counting analysis. Particulars: in vivo.
Data set [11] has as its system Liver. The data set is described as follows: Drug uptake in liver of ddY mouse at 127 +/- 35 MBq/kg, iv measured up to 6 to 7 mins by microPET image analysis in presence of MATE1 inhibitor pyrimethamine. Particulars: in vivo.
Data set [12] deals with Pancreas. As to the kind of experiment: Biodistribution in pancreas of ddY mouse at 5.6 +/- 2.1 MBq, iv measured per gram of tissue at 45 mins by gamma-ray counting analysis. Conditions: in vivo, 0.75 h.
Data set [13] relates to Kidney. The data set is described as follows: Biodistribution in kidney of ddY mouse at 14.6 +/- 2.1 MBq, iv measured per gram of tissue at 5 mins by PET image analysis. Conditions: in vivo.
In data set [14] the test system is Mus musculus. As to the kind of experiment: Biodistribution in remaining body parts of ddY mouse at 14.6 +/- 2.1 MBq, iv measured per gram of tissue at 27.5 mins by PET image analysis. Conditions: in vivo.
Data set [15] concerns Lung. The data set is described as follows: Biodistribution in lung of ddY mouse at 5.6 +/- 2.1 MBq, iv measured per gram of tissue at 35 mins by gamma-ray counting analysis. Conditions: in vivo.
Data set [16] deals with Liver. As to the kind of experiment: Biodistribution in liver of ddY mouse at 5.6 +/- 2.1 MBq, iv measured per gram of tissue at 45 mins by gamma-ray counting analysis. Particulars: in vivo, 0.75 h.
Data set [17] has as its system Spleen. The data set is described as follows: Biodistribution in spleen of ddY mouse at 5.6 +/- 2.1 MBq, iv measured per gram of tissue at 35 mins by gamma-ray counting analysis. Particulars: in vivo.
Data set [18] deals with Spleen. As to the kind of experiment: Biodistribution in spleen of ddY mouse at 5.6 +/- 2.1 MBq, iv measured per gram of tissue at 15 mins by gamma-ray counting analysis. Particulars: in vivo, 0.25 h.
For data set [19], the system named is Mus musculus. As to the kind of experiment: Biodistribution in small intestine wall of ddY mouse at 5.6 +/- 2.1 MBq, iv measured per gram of tissue at 90 mins by gamma-ray counting analysis. Particulars: in vivo, 1.5 h.

Regarding `CN([11CH3])C(=N)NC(=N)N`, the Drug uptake in data set [1] is 4.394 %ID; in data set [2] it was 0.254 %ID; in [3] it was 0.102 %ID; in data set [4], 0.08 %ID; in data set [5], 23.827 %ID; in data set [6], 1.796 %ID. Besides, the Drug uptake was 56.419 %ID in [7]; 35.204 %ID in data set [8]; 4.906 %ID in data set [9]; 0.342 %ID in data set [10]; “Active” in [11]; 0.117 %ID in data set [12]. Also, the Drug uptake in [13] came to 6.576 %ID; in [14], 28.532 %ID; in data set [15], 0.119 %ID; in [16], 0.827 %ID; in data set [17], 0.145 %ID; in data set [18] it was 0.144 %ID. The same compound gave a Drug uptake in data set [19] of 1.604 %ID.
